Test results published in patent publication US5977133A, “Pyridone antibiotic with improved safety profile” (priority 1998, dated 1999).

Experiments:
H. pylori = experiment: In vitro MIC, agar dilution; type: cell-based; conditions: H. pylori, 17 isolates
Klebsiella spp. = experiment: In vitro MIC, agar dilution; type: cell-based; conditions: Klebsiella spp., 29 isolates
Providencia spp. = experiment: In vitro MIC, agar dilution; type: cell-based; conditions: Providencia spp., 28 isolates
C. freundii = experiment: In vitro MIC, agar dilution; type: cell-based; conditions: C. freundii, 20 isolates
Enterococcus spp. (VanR) = experiment: In vitro MIC, agar dilution; type: cell-based; conditions: Enterococcus spp. (VanR), 21 isolates
C. perfringens = experiment: microbe, parasite or virus in culture; type: cell-based; conditions: C. perfringens, 13 isolates
S. epidermidis (CiproS) = experiment: In vitro MIC, agar dilution; type: cell-based; conditions: S. epidermidis (CiproS), 23 isolates
H. influenzae = experiment: In vitro MIC, agar dilution; type: cell-based; conditions: H. influenzae, 18 isolates
E. faecium (CiproS) = experiment: In vitro MIC, agar dilution; type: cell-based; conditions: E. faecium (CiproS), 16 isolates
E. faecalis (VanS) = experiment: In vitro MIC, agar dilution; type: cell-based; conditions: E. faecalis (VanS), 17 isolates
P. aeruginosa (CiproS) = experiment: In vitro MIC, agar dilution; type: cell-based; conditions: P. aeruginosa (CiproS), 24 isolates
S. pneumoniae (PenS) = experiment: In vitro MIC, agar dilution; type: cell-based; conditions: S. pneumoniae (PenS), 20 isolates
E. coli = experiment: In vitro MIC, agar dilution; type: cell-based; conditions: 25 isolates
Procedure: (§1) Each plate was inoculated with 1:100 (or 1:10 for slow-growing strains, primarily Micrococcus and Streptococcus) dilutions of up to 32 different microorganisms, using a Steers replicator block calibrated to deliver approximately 10^4 colony forming units (CFU's). The inoculated plates were incubated at from about 35° C. to about 37 ° C. for approximately 20-24 hours. In addition, a control plate using BHI agar containing no test compound was prepared and incubated at the beginning and at the end of each test. The quinolone antibacterial ciprofloxacin was used as a control ("Cntl").
(§2) The numbers below the microorganism species indicate the nunbers of isolates tested. […] The MIC is defined as the lowest concentration of test compound yielding no growth (a slight haze or sparsely isolated colonies at the inoculum spot) as compared to the growth control containing no test compound.

Salmonella spp. = experiment: In vitro MIC, agar dilution; type: cell-based; conditions: 23 isolates
Procedure: as §1, §2

Legionella spp. = experiment: microbe, parasite or virus in culture; type: cell-based
M. pneumoniae = experiment: In vitro MIC, agar dilution; type: cell-based; conditions: M. pneumoniae, 7 isolates
S. aureus (CiproS) = experiment: In vitro MIC, agar dilution; type: cell-based; conditions: S. aureus (CiproS), 21 isolates
B. fragilis = experiment: In vitro MIC, agar dilution; type: cell-based; conditions: B. fragilis, 18 isolates
M. catarrhalis = experiment: In vitro MIC, agar dilution; type: cell-based; conditions: M. catarrhalis, 18 isolates
S. pneumoniae (PenR) = experiment: In vitro MIC, agar dilution; type: cell-based; conditions: S. pneumoniae (PenR), 25 isolates
P. mirabilis = experiment: In vitro MIC, agar dilution; type: cell-based; conditions: P. mirabilis, 20 isolates
Enterobacter spp. = experiment: In vitro MIC, agar dilution; type: cell-based; conditions: Enterobacter spp., 35 isolates
C. difficile = experiment: In vitro MIC, agar dilution; type: cell-based; conditions: C. difficile, 10 isolates
S. pneumoniae (CiproR) = experiment: In vitro MIC, agar dilution; type: cell-based; conditions: S. pneumoniae (CiproR), 3 isolates
E. faecium (CiproR) = experiment: In vitro MIC, agar dilution; type: cell-based; conditions: E. faecium (CiproR), 2 isolates
P. aeruginosa (CiproR) = experiment: In vitro MIC, agar dilution; type: cell-based; conditions: P. aeruginosa (CiproR), 20 isolates
M. avium = experiment: In vitro MIC, agar dilution; type: cell-based; conditions: M. avium, 20 isolates
S. aureus (CiproR) = experiment: In vitro MIC, agar dilution; type: cell-based; conditions: S. aureus (CiproR), 25 isolates
S. pyogenes = experiment: In vitro MIC, agar dilution; type: cell-based; conditions: S. pyogenes, 21 isolates
N. gonorrhoeae = experiment: In vitro MIC, agar dilution; type: cell-based; conditions: N. gonorrhoeae, 12 isolates
[1] = mice, single intraperitoneal injection, 21 days
S. epidermidis (CiproR) = experiment: In vitro MIC, agar dilution; type: cell-based; conditions: S. epidermidis (CiproR), 11 isolates

Cc1c(N2CC[C@H](N)C2)c(F)cn2c(=O)c(C(=O)O)cc(C3CC3)c12.Cl [Example 3, 1-cyclopropyl-8-(3(S)-3-amino-1-pyrrolidinyl)-7-fluoro-9-methyl-4-oxo-4H-quinolizine-3-carboxylic acid hydrochloride]
MIC50 (H. pylori): 0.12 µg/mL | MIC90 (H. pylori): 0.25 µg/mL | MIC Range (H. pylori): 0.06 to 0.5 µg/mL | MIC50 (Klebsiella spp.): 0.12 µg/mL | MIC90 (Klebsiella spp.): 0.12 µg/mL | MIC Range (Klebsiella spp.): 0.015 to 0.5 µg/mL | MIC50 (Providencia spp.): 0.12 µg/mL | MIC90 (Providencia spp.): 0.25 µg/mL | MIC Range (Providencia spp.): 0.03 to 1 µg/mL | MIC50 (C. freundii): 0.06 µg/mL | MIC90 (C. freundii): 0.25 µg/mL | MIC Range (C. freundii): 0.015 to 0.25 µg/mL | MIC50 (Enterococcus spp. (VanR)): 0.5 µg/mL | MIC90 (Enterococcus spp. (VanR)): 1 µg/mL | MIC Range (Enterococcus spp. (VanR)): 0.12 to 4 µg/mL | MIC50 (C. perfringens): 0.12 µg/mL | MIC90 (C. perfringens): 0.25 µg/mL | MIC Range (C. perfringens): 0.06 to 0.25 µg/mL | MIC50 (S. epidermidis (CiproS)): 0.03 µg/mL | MIC90 (S. epidermidis (CiproS)): 0.06 µg/mL | MIC Range (S. epidermidis (CiproS)): 0.015 to 0.06 µg/mL | MIC50 (H. influenzae): 0.015 µg/mL | MIC90 (H. influenzae): 0.03 µg/mL | MIC Range (H. influenzae): 0.008 to 0.06 µg/mL | MIC50 (E. faecium (CiproS)): 0.5 µg/mL | MIC90 (E. faecium (CiproS)): 1 µg/mL | MIC Range (E. faecium (CiproS)): 0.25 to 1 µg/mL | MIC50 (E. faecalis (VanS)): 0.25 µg/mL | MIC90 (E. faecalis (VanS)): 0.25 µg/mL | MIC Range (E. faecalis (VanS)): 0.12 to 0.25 µg/mL | MIC50 (P. aeruginosa (CiproS)): 0.25 µg/mL | MIC90 (P. aeruginosa (CiproS)): 1 µg/mL | MIC Range (P. aeruginosa (CiproS)): 0.12 to 1 µg/mL | MIC50 (S. pneumoniae (PenS)): 0.06 µg/mL | MIC90 (S. pneumoniae (PenS)): 0.12 µg/mL | MIC Range (S. pneumoniae (PenS)): 0.06 to 0.12 µg/mL | MIC50 (E. coli): 0.03 µg/mL | MIC90 (E. coli): 0.06 µg/mL | MIC50 (Salmonella spp.): 0.06 µg/mL | MIC90 (Salmonella spp.): 0.06 µg/mL | MIC50 (Legionella spp.): 0.5 µg/mL | MIC90 (Legionella spp.): 1 µg/mL | MIC Range (Legionella spp.): 0.5 to 1 µg/mL | MIC Range (M. pneumoniae): 0.06 to 0.12 µg/mL | MIC Range (S. aureus (CiproS)): 0.015 to 0.06 µg/mL | MIC50 (B. fragilis): 0.25 µg/mL | MIC90 (B. fragilis): 0.5 µg/mL | MIC Range (B. fragilis): 0.12 to 0.5 µg/mL | MIC50 (M. catarrhalis): 0.06 µg/mL | MIC90 (M. catarrhalis): 0.06 µg/mL | MIC Range (M. catarrhalis): 0.015 to 0.06 µg/mL | MIC50 (S. pneumoniae (PenR)): 0.12 µg/mL | MIC90 (S. pneumoniae (PenR)): 0.12 µg/mL | MIC Range (S. pneumoniae (PenR)): 0.06 to 0.12 µg/mL | MIC50 (P. mirabilis): 0.12 µg/mL | MIC90 (P. mirabilis): 0.25 µg/mL | MIC Range (P. mirabilis): 0.06 to 0.25 µg/mL | MIC50 (Enterobacter spp.): 0.06 µg/mL | MIC90 (Enterobacter spp.): 0.12 µg/mL | MIC Range (Enterobacter spp.): 0.03 to 0.5 µg/mL | MIC50 (C. difficile): 0.25 µg/mL | MIC90 (C. difficile): 0.5 µg/mL | MIC Range (C. difficile): 0.25 to 0.5 µg/mL | MIC Range (S. pneumoniae (CiproR)): 0.12 to 0.25 µg/mL | MIC Range (E. faecium (CiproR)): 1 to 4 µg/mL | MIC50 (P. aeruginosa (CiproR)): 16 µg/mL | MIC90 (P. aeruginosa (CiproR)): 32 µg/mL | MIC Range (P. aeruginosa (CiproR)): 16 to 64 µg/mL | MIC50 (M. avium): 4 µg/mL | MIC90 (M. avium): 16 µg/mL | MIC Range (M. avium): 1 to 32 µg/mL | MIC50 (S. aureus (CiproR)): 0.25 µg/mL | MIC90 (S. aureus (CiproR)): 0.5 µg/mL | MIC Range (S. aureus (CiproR)): 0.06 to 2 µg/mL | MIC50 (S. pyogenes): 0.03 µg/mL | MIC90 (S. pyogenes): 0.06 µg/mL | MIC Range (S. pyogenes): 0.015 to 0.06 µg/mL | MIC50 (N. gonorrhoeae): 0.008 µg/mL | MIC90 (N. gonorrhoeae): 0.03 µg/mL | MIC Range (N. gonorrhoeae): 0.008 to 0.06 µg/mL | LD50 [1]: 105.0 mg/kg | MIC50 (S. epidermidis (CiproR)): 0.25 µg/mL | MIC90 (S. epidermidis (CiproR)): 1 µg/mL | MIC Range (S. epidermidis (CiproR)): 0.25 to 2 µg/mL
